Earlier results in US12004545B2, “Infant nutrition delivering metabolic benefits” (SOCIÉTÉ DES PRODUITS NESTLÉ S.A., priority 2016, dated 2024).

Settings: value used in the GL calculation

| SMILES | GI of ingredient (available CHO) |
| --- | --- |
| OC[C@H]1O[C@@](CO)(O[C@H]2O[C@H](CO)[C@@H](O)[C@H](O)[C@H]2O)[C@@H](O)[C@@H]1O [sucrose] | 68 |
| OC[C@H]1O[C@@H](O[C@H]2[C@H](O)[C@@H](O)C(O)O[C@@H]2CO)[C@H](O)[C@@H](O)[C@H]1O (some centres unmarked) [lactose] | 46 |
